Experimental data taken from the OPERA property sets (Mansouri et al. 2018).

**Q.** Which logP does the source give for `CC(C)NCC(O)COCc1ccccc1` (stereo not given) here?
**A.** 1.62

**Q.** For `O=C(Cc1ccccc1)NCCNCC(O)OCc1ccccc1` (stereo not given), which logP is on record?
**A.** 1.05

**Q.** With `CC(C)C(=O)NCCNCC(O)COCc1ccccc1` (stereo not given) as the molecule, how does the logP read?
**A.** 0.63

**Q.** With `CC(C)NCC(O)COCC=Cc1ccccc1` (stereo not given) as the molecule, how does the logP read?
**A.** 2.15

**Q.** Which logP does the source give for `CC(C)C(=O)NCCNCC(O)COC1CCCc2ccccc21` (stereo not given) here?
**A.** 1.99

**Q.** For `CC(C)C(=O)NCCNCC(O)COc1ccccc1` (stereo not given), which logP is on record?
**A.** 1.14

**Q.** For `CC(C)NCC(O)COCCc1ccccc1` (stereo not given), which logP is on record?
**A.** 1.76

**Q.** For `CC(C)NCC(O)COCCCC(C)c1ccccc1` (stereo not given), which logP is on record?
**A.** 2.95

**Q.** With `CC(C)(C)NCC(O)COC1CCCc2ccccc21` (stereo not given) as the molecule, how does the logP read?
**A.** 3.55

**Q.** With `O=C(Cc1ccccc1)NCCNCC(O)COc1ccccc1` (stereo not given) as the molecule, how does the logP read?
**A.** 0.63

**Q.** With `CC(C)(C)NCC(O)COCCc1ccccc1` (stereo not given) as the molecule, how does the logP read?
**A.** 2.52

**Q.** Which logP does the source give for `O=C(Cc1ccccc1)NCCNCC(O)COCCCc1ccccc1` (stereo not given) here?
**A.** 1.62

**Q.** With `CC(C)(C)NCC(O)COc1ccccc1` (stereo not given) as the molecule, how does the logP read?
**A.** 1.5

**Q.** Which logP does the source give for `O=C(Cc1ccccc1)NCCNCC(O)COCCc1ccccc1` (stereo not given) here?
**A.** 1.24

**Q.** For `CC(C)C(=O)NCCNCC(O)COCCOc1ccccc1` (stereo not given), which logP is on record?
**A.** 0.48

**Q.** Which logP does the source give for `O=C(Cc1ccccc1)NCCNCC(O)COCC=Cc1ccccc1` (stereo not given) here?
**A.** 1.76

**Q.** With `O=C(Cc1ccccc1)NCCNCC(O)COC1CCCc2ccccc21` (stereo not given) as the molecule, how does the logP read?
**A.** 1.68

**Q.** For `CC(C)(C)NCC(O)COCCOc1ccccc1` (stereo not given), which logP is on record?
**A.** 2.35

**Q.** With `CC(C)C(=O)NCCNCC(O)COCC=Cc1ccccc1` (stereo not given) as the molecule, how does the logP read?
**A.** 0.51

**Q.** Which logP does the source give for `CC(C)(C)NCC(O)COCC=Cc1ccccc1` (stereo not given) here?
**A.** 2.29

**Q.** With `CC(C)C(=O)NCCNCC(O)COCCc1ccccc1` (stereo not given) as the molecule, how does the logP read?
**A.** 0.95

**Q.** Which logP does the source give for `CC(C)NCC(O)COCCOc1ccccc1` (stereo not given) here?
**A.** 1.63

**Q.** With `CC(C)(C)NCC(O)COCc1ccccc1` (stereo not given) as the molecule, how does the logP read?
**A.** 1.7

**Q.** For `CC(C)C(=O)NCCNCC(O)COCCCc1ccccc1` (stereo not given), which logP is on record?
**A.** 1.25

**Q.** With `O=C(Cc1ccccc1)NCCNCC(O)COCCOc1ccccc1` (stereo not given) as the molecule, how does the logP read?
**A.** 0.75
